Laboratory results published in patent US5288709A, “Erythromycin derivatives” (priority 1991, dated 1994).
≈ marks a conversion by molar mass, not a printed value. Read-outs that look alike come from different tables or passages of the source.

What was measured:
Experiment in all cases: In-vitro antimicrobial activity primary screen (agar dilution MIC)
Format in all cases: cell-based
Acinetobacter SP CMX 669 = details: Acinetobacter SP CMX 669, BHI agar, 20-24 h
Description: (§1) The antimicrobial spectra of several of the compounds of the present invention were tested as described below.
(§2) Twelve petri dishes containing successive aqueous dilutions of the test compounds, mixed with 10 mL of sterilized Brain Heart Infusion (BHI) agar (Difco 0418-01-5), were prepared. Each plate was inoculated with 1:100 (or 1:10 for slow growing strains (primarily Micrococcus and Streptococcus) dilutions of up to 32 different microorganisms, using a Steers replicator block. The inoculated plates were incubated at 35 37° C. for 20-24 hours. In addition, a control plate, using BHI agar containing no test compound, was prepared and incubated at the beginning and the end of each test.
(§3) An additional plate containing a compound having known susceptibility patterns for the organisms being tested and belonging to the same antibiotic class as the test compounds was also prepared and incubated as a further control, as well as to provide test-to test comparability.
(§4) After incubation, each plate was read. The MIC (minimum inhibitory concentration) is defined as the lowest concentration of test compound yielding no growth, a slight haze, or sparsely isolated colonies on the inoculum spot as compared to the growth control containing no test compound.

[1] = tested on: Enterobacter aerogenes ATCC 13048; details: Klebsiella aerogenes, Enterobacter aerogenes ATCC 13048, BHI agar, 20-24 h
Description: as §1, §2, §3, §4

[2] = tested on: Enterococcus faecium ATCC 8043
Description: as §1, §2, §3, §4

Escherichia coli DC-2 = details: Escherichia coli DC-2, BHI agar, 20-24 h
Description: as §1, §2, §3, §4

Escherichia coli H560 = details: Escherichia coli H560, BHI agar, 20-24 h
Description: as §1, §2, §3, §4

Escherichia coli JUHL = details: Escherichia coli JUHL, BHI agar, 20-24 h
Description: as §1, §2, §3, §4

Escherichia coli SS = details: Escherichia coli, 24 h, BHI agar, 20-24 h
Description: as §1, §2, §3, §4

[3] = tested on: Micrococcus luteus ATCC 4698; details: Micrococcus luteus, ATCC4698, 24 h, BHI agar, 20-24 h
Description: as §1, §2, §3, §4

[4] = tested on: Micrococcus luteus ATCC 9341; details: ATCC9341, BHI agar, 20-24 h, read-out: MIC
Description: as §1, §2, §3, §4

[5] = tested on: Providencia stuartii CMX 640
Description: as §1, §2, §3, §4

[6] = tested on: Pseudomonas aeruginosa A5007
Description: as §1, §2, §3, §4

[7] = tested on: Pseudomonas aeruginosa BMH10; details: BHI agar, 20-24 h
Description: as §1, §2, §3, §4

[8] = tested on: Pseudomonas aeruginosa K799/61; details: Pseudomonas aeruginosa K799/61; BHI agar, 20-24 h; read-out: MIC
Description: as §1, §2, §3, §4

[9] = tested on: Pseudomonas aeruginosa K799/WT; details: Pseudomonas aeruginosa, K799/WT, 24 h
Description: as §1, §2, §3, §4

Pseudomonas cepacia 2961 = details: BHI agar, 20-24 h
Description: as §1, §2, §3, §4

[10] = tested on: Staphylococcus aureus 45 RAR2; details: Staphylococcus aureus, 45RAR2, 24 h, BHI agar, 20-24 h
Description: as §1, §2, §3, §4

Staphylococcus aureus 45 = details: BHI agar, 20-24 h
Description: as §1, §2, §3, §4

[11] = tested on: Staphylococcus aureus 642A; details: BHI agar, 20-24 h, read-out: MIC
Description: as §1, §2, §3, §4

[12] = tested on: Staphylococcus aureus A5177; details: Staphylococcus aureus, A5177, 24 h
Description: as §1, §2, §3, §4

[13] = tested on: Staphylococcus aureus ATCC 6538P; details: Staphylococcus aureus, ATCC6538P, 24 h, BHI agar, 20-24 h
Description: as §1, §2, §3, §4

[14] = tested on: Staphylococcus aureus NCTC 10649; details: NCTC10649, BHI agar, 20-24 h, read-out: MIC
Description: as §1, §2, §3, §4

[15] = tested on: Staphylococcus epidermidis 3519; details: BHI agar, 20-24 h, read-out: MIC
Description: as §1, §2, §3, §4

[16] = tested on: Streptococcus agalactiae CMX 508; details: Streptococcus agalactiae, CMX508, 24 h, BHI agar, 20-24 h
Description: as §1, §2, §3, §4

[17] = tested on: Streptococcus bovis A5169; details: Streptococcus equinus, A5169, 24 h, BHI agar, 20-24 h
Description: as §1, §2, §3, §4

[18] = tested on: Streptococcus pyrogenes 2548 INDUC; details: BHI agar, 20-24 h
Description: as §1, §2, §3, §4

[19] = tested on: Streptococcus pyrogenes EES61; details: BHI agar, 20-24 h, read-out: MIC
Description: as §1, §2, §3, §4

[20] = tested on: Staphylococcus aureus CMX 553; details: Staphylococcus aureus, CMX553, 24 h, BHI agar, 20-24 h, read-out: MIC
Description: as §1, §2
as §3, with “comparability. Erythromycin A was used for this purpose.” for “comparability.”
as §4

## CC[C@H]1OC(=O)[C@H](C)[C@@H](O[C@H]2C[C@@](C)(OC)[C@@H](O)[C@H](C)O2)[C@H](C)[C@@H](O[C@@H]2O[C@H](C)C[C@H](N(C)C)[C@H]2O)[C@](C)(OC)C[C@@H](C)[C@@H]2O[C@@]1(C)[C@@H](O)[C@H]2C [Example 28A]
Acinetobacter SP CMX 669; Acinetobacter, SPCMX669, 24 h
  MIC: 6.2 µg/mL (≈ 8.47 µM)
[1]; ATCC13048, 24 h
  MIC: 50 µg/mL (≈ 68.3 µM)
[2]; ATCC8043, Enterococcus faecium ATCC 8043, BHI agar, 20-24 h, read-out: MIC
  MIC: 0.05 µg/mL (≈ 0.0683 µM)
Escherichia coli DC-2; Escherichia coli, DC2, 24 h
  MIC: 25 µg/mL (≈ 34.2 µM)
Escherichia coli H560; Escherichia coli, H560, 24 h
  MIC: 25 µg/mL (≈ 34.2 µM)
Escherichia coli JUHL; Escherichia coli, 24 h
  MIC: 25 µg/mL (≈ 34.2 µM)
Escherichia coli SS
  MIC: 0.2 µg/mL (≈ 0.273 µM)
[3]
  MIC: 0.1 µg/mL (≈ 0.137 µM)
[4]
  MIC: 0.05 µg/mL (≈ 0.0683 µM)
[5]; Providencia stuartii, CMX640, 24 h
  MIC: > 100 µg/mL
[6]; Pseudomonas aeruginosa, A5007, 24 h
  MIC: > 100 µg/mL
[7]; Pseudomonas aeruginosa, BMH10, 24 h
  MIC: 50 µg/mL (≈ 68.3 µM)
[8]
  MIC: 0.78 µg/mL (≈ 1.07 µM)
[9]
  MIC: > 100 µg/mL
Pseudomonas cepacia 2961; Burkholderia cepacia, 2961, 24 h
  MIC: > 100 µg/mL
[10]
  MIC: 0.2 µg/mL (≈ 0.273 µM)
Staphylococcus aureus 45; Staphylococcus aureus, 45, 24 h
  MIC: 3.1 µg/mL (≈ 4.24 µM)
[11]
  MIC: 0.2 µg/mL (≈ 0.273 µM)
[12]
  MIC: 0.2 µg/mL (≈ 0.273 µM)
[13]
  MIC: 0.2 µg/mL (≈ 0.273 µM)
[14]
  MIC: 0.2 µg/mL (≈ 0.273 µM)
[15]
  MIC: 0.2 µg/mL (≈ 0.273 µM)
[16]
  MIC: 0.05 µg/mL (≈ 0.0683 µM)
[17]
  MIC: 0.02 µg/mL (≈ 0.0273 µM)
[18]; Streptococcus, 2548INDUC, 24 h
  MIC: 3.1 µg/mL (≈ 4.24 µM)
[19]
  MIC: 0.02 µg/mL (≈ 0.0273 µM)
[20]
  MIC: 0.2 µg/mL (≈ 0.273 µM)

## CC[C@H]1OC(=O)[C@H](C)[C@@H](O[C@H]2C[C@@](C)(OC)[C@@H](NC(N)=O)[C@H](C)O2)[C@H](C)[C@@H](O[C@@H]2O[C@H](C)C[C@H](N(C)C)[C@H]2O)[C@](C)(O)C[C@@H](C)[C@@H]2O[C@@]1(C)C(=O)[C@H]2C [Example 32, (4"S,9S)-4"-[(aminocarbonyl)amino]-9-deoxo-4",11,12-trideoxy-9,12-epoxy-11-oxoerythromycin A]
Acinetobacter SP CMX 669; SPCMX669, read-out: MIC
  MIC: 100 µg/mL (≈ 132 µM)
[1]; ATCC13048, read-out: MIC
  MIC: 100 µg/mL (≈ 132 µM)
[2]; Enterococcus faecium, ATCC8043, 24 h
  MIC: 0.2 µg/mL (≈ 0.264 µM)
Escherichia coli DC-2; DC2, read-out: MIC
  MIC: 100 µg/mL (≈ 132 µM)
Escherichia coli H560; read-out: MIC
  MIC: 100 µg/mL (≈ 132 µM)
Escherichia coli JUHL; read-out: MIC
  MIC: 100 µg/mL (≈ 132 µM)
Escherichia coli SS
  MIC: 0.2 µg/mL (≈ 0.264 µM)
[3]
  MIC: 0.2 µg/mL (≈ 0.264 µM)
[4]
  MIC: 0.05 µg/mL (≈ 0.066 µM)
[5]; CMX640, Providencia stuartii CMX 640, BHI agar, 20-24 h, read-out: MIC
  MIC: > 100 µg/mL
[6]; Pseudomonas aeruginosa A5007, BHI agar, 20-24 h, read-out: MIC
  MIC: > 100 µg/mL
[7]; read-out: MIC
  MIC: 100 µg/mL (≈ 132 µM)
[8]
  MIC: 0.78 µg/mL (≈ 1.03 µM)
[9]; Pseudomonas aeruginosa K799/WT, BHI agar, 20-24 h
  MIC: 50 µg/mL (≈ 66 µM)
Pseudomonas cepacia 2961; Burkholderia cepacia, read-out: MIC
  MIC: > 100 µg/mL
[10]
  MIC: 0.39 µg/mL (≈ 0.515 µM)
Staphylococcus aureus 45; read-out: MIC
  MIC: 0.2 µg/mL (≈ 0.264 µM)
[11]
  MIC: 0.1 µg/mL (≈ 0.132 µM)
[12]
  MIC: > 100 µg/mL
[13]
  MIC: 0.1 µg/mL (≈ 0.132 µM)
[14]
  MIC: 0.1 µg/mL (≈ 0.132 µM)
[15]
  MIC: 0.2 µg/mL (≈ 0.264 µM)
[16]
  MIC: 0.05 µg/mL (≈ 0.066 µM)
[17]
  MIC: 0.05 µg/mL (≈ 0.066 µM)
[18]; read-out: MIC
  MIC: 0.78 µg/mL (≈ 1.03 µM)
[19]
  MIC: 0.02 µg/mL (≈ 0.0264 µM)
[20]
  MIC: 0.2 µg/mL (≈ 0.264 µM)
